Patent publication US9006454B2, “Dihydroorotate dehydrogenase inhibitors” (Merck Serono S.A., priority 2009, dated 2015)

Assays:
[1] = test system: multiple sclerosis with relapses; details: once-daily oral 7 and 14 mg; cited from earlier work
[2] = test system: spleen colony-forming units (CFU); details: cited from earlier work
[3] = target: T1, DHODH (Homo sapiens (Human), UniProt Q02127); details: cited from earlier work
Target sequence in this assay (Q02127 whole entry, species assumed): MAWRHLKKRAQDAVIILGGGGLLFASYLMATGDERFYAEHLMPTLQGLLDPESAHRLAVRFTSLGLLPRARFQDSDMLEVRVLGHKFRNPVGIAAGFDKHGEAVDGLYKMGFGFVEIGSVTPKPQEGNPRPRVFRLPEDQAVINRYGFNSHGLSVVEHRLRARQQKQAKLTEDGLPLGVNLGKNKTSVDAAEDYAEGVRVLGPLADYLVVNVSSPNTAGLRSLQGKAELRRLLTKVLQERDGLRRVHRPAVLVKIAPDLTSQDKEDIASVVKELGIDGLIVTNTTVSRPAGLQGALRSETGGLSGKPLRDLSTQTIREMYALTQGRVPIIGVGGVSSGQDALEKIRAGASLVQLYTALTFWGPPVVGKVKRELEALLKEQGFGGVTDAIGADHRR

[4] = test system: experimental allergic encephalomyelitis (EAE); details: oral, from 10 days after inoculation; Teriflunomide 3 and 10 mg/kg, dexamethasone 1 mg/kg; cited from earlier work
[5] = test system: colon 38 tumor; details: murine model colon 38 tumor; cited from earlier work
[6] = test system: L1210 murine leukemia; details: cited from earlier work
[7] = test system: Jurkat cells; experiment: Measurement of cell proliferation (Jurkat cell), XTT assay; type: cell-based; details: Homo sapiens, Jurkat; compound at 1 uM; read-out: % inh Jurkat_cells @ 1 uM (%)
In short: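 Jurkat T cells, 100,000 per well in RPMI with 10% FBS, exposed 72 h at 37 °C to serial compound dilutions (typically from 10 μM, half-log steps, triplicate) at 0.25–0.5% DMSO. Viability by XTT/PMS, A465 after 2 h, media background subtracted, untreated cells as 100%; EC50 from curve fit.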

[8] = target: T1, DHODH; experiment: DHODH activity assay (coupled enzyme assay, DCIP reduction, absorbance at 610 nm); type: biochemical; details: for inhibition at 10 µM: compound at 10 uM, read-out: inh @ 10 uM hDHODH (%)
Target sequence in this assay (Q02127 whole entry): as the sequence (Q02127 whole entry, species assumed) above

**Q.** With `C/C(O)=C(\C#N)C(=O)Nc1ccc(C(F)(F)F)cc1` [Teriflunomide] as the molecule, how does the “number of unique active lesions compared to placebo” value [1] read?
**A.** The value was “reduced number of unique active lesions”.

**Q.** And the CFU cycling [2]?
**A.** The CFU cycling was “inhibited CFU cycling”.

**Q.** What about the “fold greater inhibitor of DHODH than of protein tyrosine kinase” value [3] of the same molecule?
**A.** Its value is 100-1,000 fold.

**Q.** And the “onset of disease and symptom severity in EAE” value [4]?
**A.** The value was “significant delay in the onset of disease and in symptom severity”.

**Q.** Which “onset of disease and symptom severity in EAE” value [4] does the source give for `C[C@@H]1C[C@H]2[C@@H]3CCC4=CC(=O)C=C[C@]4(C)[C@@]3(F)[C@@H](O)C[C@]2(C)[C@@]1(O)C(=O)CO` [dexamethasone] here?
**A.** Its value is “significant delay in the onset of disease and in symptom severity”.

**Q.** Which results are given for `Cc1c(-c2ccc(-c3ccccc3F)cc2)nc2ccc(F)cc2c1C(=O)O` [Brequinar, 6-Fluoro-2-(2′-fluoro[1,1′-biphenyl]-4-yl)-3-methyl-4-quinolinecarboxylic Acid]?
**A.** potentiation of 5-fluorouracil antitumor activity [5]: potentiates 5-fluorouracil antitumor activity; anticancer activity towards L1210 murine leukemia [6]: exhibits an anticancer activity

**Q.** Which inhibition at 1 µM [7] does the source give for `Cc1cc(C(=O)O)c2[nH]c(-c3ccc(-c4ccc(OCCC5CCNCC5)cc4)cc3)nc2c1` [I95] here?
**A.** The inhibition at 1 µM was 14.3%.

**Q.** What about the IC50 [8] of the same molecule?
**A.** Its IC50 is 6010 nM.

**Q.** And the inhibition at 10 µM [8]?
**A.** The inhibition at 10 µM was 58.7%.

**Q.** For `O=C(O)c1cccc2nc(-c3ccc(-c4c(F)cccc4F)cc3)[nH]c12` [I65], which inhibition at 1 µM [7] is on record?
**A.** Its inhibition at 1 µM is 43%.

**Q.** And the IC50 [8]?
**A.** Its IC50 is 1840 nM.

**Q.** And the inhibition at 10 µM [8]?
**A.** The inhibition at 10 µM was 82%.

**Q.** With `Cc1cc(C(N)=O)c2nc(-c3c(F)c(F)c(-c4ccccc4)c(F)c3F)[nH]c2c1` [I102] as the molecule, how does the inhibition at 1 µM [7] read?
**A.** Its inhibition at 1 µM is 64.2%.

**Q.** What about the IC50 [8] of the same molecule?
**A.** Its IC50 is 446 nM.

**Q.** And the inhibition at 10 µM [8]?
**A.** Its inhibition at 10 µM is 87.9%.

**Q.** Which inhibition at 1 µM [7] does the source give for `O=C(O)c1cccc2[nH]c(-c3ccc(-c4ccccc4O)cc3)nc12` [I168] here?
**A.** The inhibition at 1 µM was 34%.

**Q.** What about the inhibition at 10 µM [8] of the same molecule?
**A.** The inhibition at 10 µM was 85%.

**Q.** Which inhibition at 1 µM [7] does the source give for `O=C(O)c1cccc2nc(-c3ccc(-n4ccccc4=O)cc3)[nH]c12` [I63] here?
**A.** The inhibition at 1 µM was 1.4%.

**Q.** And the inhibition at 10 µM [8]?
**A.** The inhibition at 10 µM was 5.3%.

**Q.** With `Cc1cc(C(=O)O)c2nc(-c3ccc(-c4ccc(CO)cc4)cc3)[nH]c2c1` [I170] as the molecule, how does the inhibition at 1 µM [7] read?
**A.** Its inhibition at 1 µM is 57%.

**Q.** And the inhibition at 10 µM [8]?
**A.** The inhibition at 10 µM was 84%.

**Q.** Which results are given for `Cc1cc(C(=O)O)c2nc(-c3ccc(-c4nc5ccccc5s4)cc3)[nH]c2c1` [I47]?
**A.** inhibition at 1 µM [7]: 17.3%; inhibition at 10 µM [8]: 40.3%

**Q.** Which inhibition at 1 µM [7] does the source give for `N#Cc1cccc2nc(-c3ccc(-c4ccccc4)cc3)[nH]c12` [I38] here?
**A.** Its inhibition at 1 µM is 8%.

**Q.** What about the inhibition at 10 µM [8] of the same molecule?
**A.** The inhibition at 10 µM was 16.8%.
